Test results taken from patent publication US20080208179A1, “METHODS OF INCREASING SKIN PERMEABILITY BY TREATMENT WITH ELECTROMAGNETIC RADIATION” (Reliant Technologies, Inc., priority 2006, published 2008).

Legend:
Type in all cases: in vitro ADME
[1] = In vitro permeation of ascorbic acid through fractional laser treated ex vivo human skin (Example 6, 60 μm treatment zone size); details: for Retention Ratio / Total Uptake Ratio: delivery mode not given; for Cumulative permeation / Enhancement ratio (total uptake by treatment/total uptake in control) / Retention / Total uptake: 90 min
Description: In vitro permeation studies were performed on untreated and treated human skin to determine if treatment of the skin with fractional laser radiation increased skin permeability to ascorbic acid. The treatment consisted of exposing the skin in vitro to fractional laser radiation. This study also evaluated the effect of using the laser radiation using the contact delivery mode and the non-contact delivery mode.
Ex vivo skin: All ex vivo laser treatments were performed using a 1550 nm laser system on freshly excised human abdominal skin (Fitzpatrick skin type II).
Laser parameters: Arrays of single mode Gaussian beams of 60 μm 1/e^2 diameter at incidence were delivered to the surface of the skin specimen in each treatment, using contact and non-contact tips. For the contact delivery mode, the laser radiation was delivered through a sapphire window in a contact tip which abutted the specimen. For the non-contact delivery mode, the laser radiation was delivered through a contact tip without the sapphire window; thus, the laser incidence occurred at the air-tissue interface. The laser pulse energies tested for ascorbic acid uptake measurements were 10 and 20 mJ. […]
Ascorbic acid formulation: Topical vitamin C solution contained L-ascorbic acid 15% (VWR International, West Chester, Pa.), ferulic acid 0.5%, and vitamin E 1% buffered to a pH of 3.2±0.2 with triethanolamine (Lin et al, 2005). Ascorbic acid was freshly prepared avoiding light exposure just prior to each experiment.
(§1) Ascorbic acid permeation studies: The uptake studies were carried out using skin permeation systems (LGA, Inc., Berkeley, Calif.) and 500 μm thick skin grafts from freshly excised human abdominal skin. Non-laser treated skin was used as a control. Immediately after laser treatment, each skin sample was mounted on a permeation system whose donor compartment was then filled with ascorbic acid solution (Lee et al, 2003). The entire arrangement was incubated to simulate body temperature. Aliquots were drawn at 5, 10, 15, 30, 60, and 90 min, and quantitatively analyzed for permeated ascorbic acid using high performance liquid chromatography (HPLC). After 90 min, each skin sample was washed thoroughly in saline, weighed, homogenized and centrifuged (Lee et al, 2003). This was followed by HPLC analysis to determine the retained ascorbic acid value. The measured retention was then normalized to the effective area of skin sample through which permeation occurred. Each experiment constituted a total of 5 individual runs (n=5).
Data analysis: The total uptake was taken as the sum of the permeated and retained ascorbic acid. The permeation values were calculated at each time point and plotted as a cumulative value. The uptake enhancement ratio represents the total ascorbic acid uptake for laser treated skin divided by the total uptake for untreated skin at 90 min.

[2] = In vitro permeation of ascorbic acid through fractional laser treated ex vivo human skin (Example 7, 85 μm spot size); details: for Cumulative permeation / Enhancement ratio (total uptake in treated sample/total uptake in control) / Retention / Total uptake: 90 min; for Normalized cumulative permeation at 10 mJ @ 2000 MTZ/cm2 relative to 20 mJ @ 1000 MTZ/cm2: by 90 min
Description: In vitro permeation studies were performed on untreated and treated human skin to determine if treatment of the skin with fractional laser radiation increased skin permeability to ascorbic acid.
A modified 1550 nm Fraxel® SR laser system was operated as previously described by Bedi et al., Lasers Surg Med, 2007 February; 39(2):145-55. Arrays of single mode Gaussian beams of 85 μm 1/e^2 diameter at incidence were delivered to the surface of the skin specimen in each treatment, using contact and non-contact tips. The contact tip abutted the specimen through a sapphire window through which the laser beam was irradiated. The non-contact tip omitted the sapphire window; thus, the laser incidence occurred at the air-tissue interface. The laser pulse energies tested for ascorbic acid uptake measurements were 10 and 20 mJ. For each 10 mJ treatment, 8 passes at 250 microscopic treatment zones (MTZs) per cm^2 were made at a constant velocity of 1.0 cm per second producing a final spot density of 2000 MTZs per cm^2; for each 20 mJ treatment, 4 passes at 250 microscopic treatment zones (MTZs) per cm^2 were made at a constant velocity of 1.0 cm per second producing a final spot density of 1000 MTZs per cm^2. These pulse energy and spot density combination parameters are similar to those used in a typical clinical NFR™ treatment session. Histologic examination was performed for pulse energies ranging from 6 to 40 mJ at a fixed spot size of 85 μm. The pulse durations ranged from 0.24 to 1.6 msec per pulse.
Topical vitamin C solution contained L-ascorbic acid 15% (VWR International, West Chester, Pa.), ferulic acid 0.5%, and vitamin E 1% buffered to a pH of 3.2±0.2 with triethanolamine (Lin et al, 2005). Ascorbic acid was freshly prepared avoiding light exposure just prior to each experiment.
as §1, with “The uptake” for “Ascorbic acid permeation studies: The uptake”, “and 90 min from the diffusion chamber, and quantitatively” for “and 90 min, and quantitatively”
The total uptake was taken as the sum of the permeated and retained ascorbic acid over the cross-sectional area of the skin through which uptake occurred. The permeation values were calculated at each time point and plotted as a cumulative value. The uptake enhancement ratio represents the total ascorbic acid uptake for laser treated skin divided by the total uptake for untreated skin at 90 min.

[3] = In vitro permeation of 5-Fluorouracil through fractional laser treated ex vivo human skin (Example 8)
Description: In vitro permeation studies were performed on untreated and treated ex vivo human skin to determine if treatment of the skin with fractional laser radiation increased skin permeability to a 0.5% (w/v) 5-Fluorourocil solution. The treatment was conducted using the methods outlined in Examples 6 and 7 using a Fraxel Re:store™ laser system (Reliant Technologies, Mountain View, Calif., USA). The treatment parameters used included a laser pulse energy of 10 mJ, a 60 μm incident optical spot size, and a final spot density of 2000 MTZ/cm^2. The skin graft thickness used was 500 μm. The experiment consisted of a total of 6 individual runs (n=6). The uptake study was conducted using an infinite dose regimen.
The total uptake was taken as the sum of the permeated and retained 5-Fluorouracil. The permeation values were calculated at each time point and plotted as a cumulative value in FIG. 16. Over the course of the study (24 hours), the uptake of 5-Fluorouracil from the untreated skin (control) remained below 0.2 mg/cm^2, while the uptake of 5-Fluorouracil from the laser treated skin approached 1.4 mg/cm^2 after 24 hours.

[4] = 20 mJ, 1000 TZ/cm2, contact mode
[5] = 20 mJ, 1000 TZ/cm2, non-contact mode
[6] = 1550 nm, 60 μm, 20 mJ, contact mode, 1000 TZ/cm2
[7] = 1550 nm, 60 μm, 20 mJ, non-contact mode, 1000 TZ/cm2
[8] = control, non-laser treated skin
[9] = skin group not stated (sentence follows the control value)
[10] = 1550 nm, 85 μm, 10 mJ, contact mode, 2000 MTZ/cm2
[11] = 1550 nm, 85 μm, 20 mJ, contact mode, 1000 MTZ/cm2
[12] = 1550 nm, 85 μm, 20 mJ, non-contact mode, 1000 MTZ/cm2
[13] = 1550 nm, 85 μm, non-contact mode, pulse energy 20 mJ, text b229 prints 10 mJ @ 2000 MTZ/cm2
[14] = 10 mJ, 60 μm spot size, 2000 MTZ/cm2, 0.5% (w/v) solution, n=6

O=C1O[C@H]([C@@H](O)CO)C(O)=C1O [ascorbic acid, L-ascorbic acid]
Retention Ratio ([1]; 10 mJ, 1000 TZ/cm2): 1.8 | Total Uptake Ratio ([1]; 10 mJ, 1000 TZ/cm2): 2.9 | Retention Ratio ([1]; 10 mJ, 2000 TZ/cm2): 2.0 | Total Uptake Ratio ([1]; 10 mJ, 2000 TZ/cm2): 4.2 | Retention Ratio ([1]; 20 mJ, 500 TZ/cm2): 1.3 | Total Uptake Ratio ([1]; 20 mJ, 500 TZ/cm2): 7.0 | Retention Ratio (retained by treated skin / retained by control skin) [1, 4]: 2.1 | Total Uptake Ratio (treated skin / control skin) [1, 4]: 5.3 | Retention Ratio (retained by treated skin / retained by control skin) [1, 5]: 3.8 | Total Uptake Ratio (treated skin / control skin) [1, 5]: 9.6 | Retention Ratio ([1]; 20 mJ, 1000 TZ/cm2): 3.8 | Total Uptake Ratio ([1]; 20 mJ, 1000 TZ/cm2): 9.6 | Cumulative permeation over time, non-contact mode compared with contact mode ([1]; 20 mJ, FIG. 12): higher permeation levels | Cumulative permeation [1, 6]: 0.20 ± 0.03 mg | Enhancement ratio (total uptake by treatment/total uptake in control) [1, 6]: 5.3 | Retention [1, 6]: 0.13 ± 0.01 mg | Total uptake [1, 6]: 0.42 ± 0.06 mg/cm2 | Cumulative permeation [1, 7]: 0.37 ± 0.14 mg | Enhancement ratio (total uptake by treatment/total uptake in control) [1, 7]: 9.6 | Retention [1, 7]: 0.24 ± 0.03 mg | Total uptake [1, 7]: 0.77 ± 0.18 mg/cm2 | Cumulative permeation [1, 8]: below | Retention [1, 8]: 0.06 ± 0.01 mg | Total uptake [1, 8]: 0.08 ± 0.01 mg/cm2 | Share of the total uptake contributed by permeation [1, 9]: ~70% | Share of the total uptake contributed by retention [1, 9]: Approximately 30% | Improvement of uptake in non-contact mode over contact mode at identical laser parameters ([2]; 10 mJ @ 2000 MTZ/cm2): ~4 × | Improvement of uptake in non-contact mode over contact mode at identical laser parameters ([2]; 20 mJ @ 1000 MTZ/cm2): ~3 × | Cumulative permeation [2, 10]: 0.49 ± 0.07 mg | Enhancement ratio (total uptake in treated sample/total uptake in control) [2, 10]: 6.6 | Retention [2, 10]: 0.22 ± 0.02 mg | Total uptake [2, 10]: 0.90±0.07 mg/cm2 | Cumulative permeation [2, 11]: 0.27 ± 0.10 mg | Enhancement ratio (total uptake in treated sample/total uptake in control) [2, 11]: 3.6 | Retention [2, 11]: 0.12 ± 0.02 mg | Total uptake [2, 11]: 0.49±0.14 mg/cm2 | Cumulative permeation [2, 12]: 0.90 ± 0.27 mg | Enhancement ratio (total uptake in treated sample/total uptake in control) [2, 12]: 10.3 | Retention [2, 12]: 0.19 ± 0.02 mg | Total uptake [2, 12]: 1.40±0.31 mg/cm2 | Cumulative permeation ([2]; 1550 nm, 85 μm, non-contact mode, pulse energy 20 mJ, text b227 prints 10 mJ @ 2000 MTZ/cm2): 2.41 ± 0.44 mg | Retention ([2]; 1550 nm, 85 μm, non-contact mode, pulse energy 20 mJ, text b228 prints 10 mJ @ 2000 MTZ/cm2): 0.40 ± 0.09 mg | Enhancement ratio (total uptake in treated sample/total uptake in control) [2, 13]: 26.3 | Total uptake [2, 13]: 3.58±0.54 mg/cm2 | Permeation into the diffusion chamber ([2]; all conditions of laser treatment tested): observed to permeate into the diffusion chamber | Normalized cumulative permeation at 10 mJ @ 2000 MTZ/cm2 relative to 20 mJ @ 1000 MTZ/cm2 ([2]; contact mode): approximately 2 × | Total uptake at 2000 MTZ/cm2 relative to 1000 MTZ/cm2 within the respective treatment mode ([2]; contact or non-contact, regardless of pulse energy (10 mJ or 20 mJ)): approximately two or more times | Retention [2, 8]: 0.11 ± 0.01 mg | Total uptake [2, 8]: 0.14±0.01 mg/cm2 | Normalized cumulative permeation at 10 mJ @ 2000 MTZ/cm2 relative to 20 mJ @ 1000 MTZ/cm2 ([2]; non-contact mode): more than twice | Permeation measured by HPLC ([2]; non-irradiated ex vivo skin, up to 90 min after application): no permeation | Time until permeation was demonstrated ([2]; skin treated at pulse energies of 10 mJ and 20 mJ, contact mode, FIG. 13): ≤ 5 min

O=c1[nH]cc(F)c(=O)[nH]1 [5-Fluorouracil]
Permeation, Ratio ± Standard Deviation [3, 14]: 37.7 ± 10.6 | Retention, Ratio ± Standard Deviation [3, 14]: 2.4 ± 0.8 | Uptake, Ratio ± Standard Deviation [3, 14]: 20.3 ± 5.3 | Uptake ([3]; laser treated skin, 10 mJ, 60 μm, 2000 MTZ/cm2, after 24 hours): ~1.4 mg/cm^2 | Uptake ([3]; untreated skin (control), over 24 hours): below 0.2 mg/cm^2
